Reference: patent US20070212690A1, “Folate Antagonists Having Improved Selectivity” (Serenex, Inc., priority 2003, published 2007)

What was measured:
DHFR = experiment: Elution of purine-binding proteins from ATP-Sepharose column with the compound; set-up: species or system porcine liver, porcine lidney, HeLa cells, whole mice; details: lysate on ATP-Sepharose; methotrexate 10 nM to 500 μM; SDS gel, silver stain, MALDI
Method: (§1) Molecular targets for the folate antagonist methotrexate were identified as follows. Cell or tissue lysates were produced from porcine liver, porcine lidney, HeLa cells, and whole mice. This lysate was run over an ATP-Sepharose™ column in order to extract all purine-binding proteins. […] The ATP-Sepharose™ washed several times, and then eluted with methotrexate at concentrations ranging from 10 nM to 500 μM to identify proteins that bound to this compound. The eluted fractions were run on a 1-dimensional SDS polyacrylamide gel. The eluted proteins were then stained with silver stain, cut out of the gel, and identified using matrix-assisted laser deionization/ionization (MALDI). […] The experiment was also repeated using folate to elute the purine binding proteome from the ATP-Sepharose column.

glutathione synthase = experiment: as above; set-up: species or system porcine liver, porcine lidney, HeLa cells, whole mice; details: lysate on ATP-Sepharose; methotrexate 10 nM to 500 μM; SDS gel, silver stain, MALDI
Method: as §1

pyruvate carboxylase = experiment: as above; set-up: species or system porcine liver, porcine lidney, HeLa cells, whole mice; details: lysate on ATP-Sepharose; methotrexate 10 nM to 500 μM; SDS gel, silver stain, MALDI
Method: as §1

[1] = test system: propionyl-CoA carboxylase; experiment: as above; set-up: species or system porcine liver, porcine lidney, HeLa cells, whole mice; details: lysate on ATP-Sepharose; methotrexate 10 nM to 500 μM; SDS gel, silver stain, MALDI
Method: as §1

biotin carboxylase = experiment: as above; set-up: species or system porcine liver, porcine lidney, HeLa cells, whole mice; details: lysate on ATP-Sepharose; methotrexate 10 nM to 500 μM; SDS gel, silver stain, MALDI
Method: (§2) Molecular targets for the folate antagonist methotrexate were identified as follows. Cell or tissue lysates were produced from porcine liver, porcine lidney, HeLa cells, and whole mice. This lysate was run over an ATP-Sepharose™ column in order to extract all purine-binding proteins. […] The ATP-Sepharose™ washed several times, and then eluted with methotrexate at concentrations ranging from 10 nM to 500 μM to identify proteins that bound to this compound. The eluted fractions were run on a 1-dimensional SDS polyacrylamide gel. The eluted proteins were then stained with silver stain, cut out of the gel, and identified using matrix-assisted laser deionization/ionization (MALDI).

acetyl-CoA carboxylase = experiment: as above; set-up: species or system porcine liver, porcine lidney, HeLa cells, whole mice; details: lysate on ATP-Sepharose; methotrexate 10 nM to 500 μM; SDS gel, silver stain, MALDI
Method: as §2

[2] = test system: methylcrotonyl-CoA carboxylase; experiment: as above; set-up: species or system porcine liver, porcine lidney, HeLa cells, whole mice; details: lysate on ATP-Sepharose; methotrexate 10 nM to 500 μM; SDS gel, silver stain, MALDI
Method: as §2

[3] = test system: the same proteins that were eluted from ATP-Sepharose with methotrexate; experiment: Elution of lysate proteins from methotrexate covalently linked to agarose; type: binding, porcine liver, porcine lidney, HeLa cells, whole mice; details: lysates applied to methotrexate covalently linked to agarose
Method: as §2

GART = experiment: Elution of purine-binding proteins from ATP-Sepharose column with the compound; details: lysate on ATP-Sepharose; methotrexate 10 nM to 500 μM; SDS gel, silver stain, MALDI
Method: as §1

CN(Cc1cnc2nc(N)nc(N)c2n1)c1ccc(C(=O)N[C@@H](CCC(=O)O)C(=O)O)cc1 [methotrexate]
DHFR eluted from ATP-Sepharose by the compound (indicates binding) (DHFR): eluted | glutathione synthase eluted from ATP-Sepharose by the compound (indicates binding) (glutathione synthase): eluted | pyruvate carboxylase eluted from ATP-Sepharose by the compound (indicates binding) (pyruvate carboxylase): eluted | propionyl-CoA carboxylase eluted from ATP-Sepharose by the compound (indicates binding) [1]: eluted | biotin carboxylase eluted from ATP-Sepharose by the compound (indicates binding) (biotin carboxylase): eluted | acetyl-CoA carboxylase eluted from ATP-Sepharose by the compound (indicates binding) (acetyl-CoA carboxylase): eluted | methylcrotonyl-CoA carboxylase eluted from ATP-Sepharose by the compound (indicates binding) [2]: eluted | same proteins eluted from methotrexate-agarose with methotrexate (confirmation of targets) [3]: also eluted from methotrexate agarose with methotrexate | GART eluted from ATP-Sepharose by the compound (indicates binding) (GART): eluted
